Reference: patent publication US20210348164A1, “ENDOGENOUS CYTOPLASMIC ALU COMPLEMENTARY DNA IN AGE-RELATED MACULAR DEGENERATION” (University of Virginia Patent Foundation, priority 2018, published 2021)

Tests used:
[1] = system: L1 ORF2 reverse transcriptase activity; test: Alu cDNA formation in Oryzomys RPE cells with enforced L1 ORF2 expression (Alu-specific qPCR of cytoplasmic fractions); type: cell-based, rat L1 ORF2 in Oryzomys palustris RPE cells; settings: high-dose
Experimental: Subretinal and intravitreous injections. Subretinal injections (1 μl for mice, 3 μl for rat) or intravitreous injections (0.5 μl for mice, 2 μl for rat) in mice or rat were performed using a 35-gauge needle (Ito Co. Fuji, Japan). In vivo transfection of Alu RNA or mutant Alu RNA (3.6-300 ng per eye); Alu complementary DNA (cDNA; 0.0036-90 ng per eye); Alu reverse sequence cDNA (3.6-90 ng per eye); or 7SL cDNA (3.6-90 ng per eye) was performed using 10% NEUROPORTER™ transfection reagent (Genlantis, San Diego, Calif., United States of America) as previously described (Kaneko et al., 2011; Tarallo et al., 2012). 3TC, TM-3TC, Cpep-3TC, Cpep, PA-4 3TC, EFV, DLV, or NVP (50 μM/1 μl or 500 μM/1 μl) were administered by intravitreous injection (Mandal et al., 2011; Nasrolahi et al., 2013). […]
Alu cDNA detection by real-time PCR. […] Then samples were directly amplified by real-time quantitative PCR (7900 HT Fast Real-Time PCR system, Applied Biosystems, Foster City, Calif., United States of America) with Power SYBR Green Master Mix. […] The copy number of Alu cDNA was calculated using standard curves that were obtained using serial dilutions of the plasmids containing an Alu Y sequence. […]

[2] = system: Alu G25C RNA-induced RPE degeneration; test: Alu G25C RNA-induced RPE degeneration in wild-type mice; type: in vivo, mouse; settings: WT mice; subretinal Alu G25C RNA

Compound | Formation of Alu cDNA following Alu RNA transfection [1] | Alu G25C RNA-induced RPE degeneration [2]
O=C1Nc2ccc(Cl)cc2[C@@](C#CC2CC2)(C(F)(F)F)O1 [EFV, efavirenz] | inhibited | 
L1 siRNA: siRNA targeting L1; cholesterol-conjugated mouse L1 siRNA (SEQ ID NOs: 48 and 49) in vivo, human L1 siRNA sequences in human cells (chain 1 ACUAUUACUCUGAUACCTT; chain 2 UGUACUAAGGUCAAAUCTT; cholesterol conjugated, position not given here) |  | prevented Alu G25C RNA-induced RPE degeneration
